Reference: US9593108B2, “Compounds and methods for antiviral treatment” (PTC Therapeutics, Inc., priority 2009, dated 2017)
pIC50: −log10 of the molar value.

Tests used:
[1] = test system: HCV replicon RNA (GenBank Accession No. AJ242654); assay: HCV Replicon Assay (replicon RNA reduction and/or Fluc reporter signal); format: cell-based, Hepatitis C virus; details: Hepatitis C virus, 72 h, replicon-containing cells cultured with test compound for up to 3 days
Method in brief: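 Bicistronic replicon-containing cells cultured with compound for up to 3 days, with interferon as positive control. Inhibition quantified by replicon RNA reduction and/or Fluc reporter signal; IC50 values generally derived from replicon RNA reduction.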

| Compound | melting point | pIC50 [1] |
| --- | --- | --- |
| C[C@@H](NS(=O)(=O)c1ccc(-c2c(C#N)c3cc(Cl)cnc3n2CC2CC2)nc1)C(F)(F)F [Cpd 59, 6-[5-chloro-3-cyano-1-(cyclopropylmethyl)-1H-pyrrolo[2,3-b]pyridin-2-yl]-N-[(2R)-1,1,1-trifluoropropan-2-yl]pyridine-3-sulfonamide] | 224 to 226 °C | 5.70 to 6.30 |
| C[C@@H](NS(=O)(=O)c1ccc(-c2c(C#N)c3cc(F)cnc3n2CC2CC2)nc1)C(F)(F)F [Cpd 60, 6-[3-cyano-1-(cyclopropylmethyl)-5-fluoro-1H-pyrrolo[2,3-b]pyridin-2-yl]-N-[(2R)-1,1,1-trifluoropropan-2-yl]pyridine-3-sulfonamide] | 185 to 187 °C | > 6.30 |
| C[C@H](NS(=O)(=O)c1ccc(-c2c(C#N)c3cc(Cl)cnc3n2C2CCC2)cc1)C(F)(F)F [Cpd 61, 4-(5-chloro-3-cyano-1-cyclobutyl-1H-pyrrolo[2,3-b]pyridin-2-yl)-N-[(2S)-1,1,1-trifluoropropan-2-yl]benzenesulfonamide] | 220 to 222 °C | > 6.30 |
| C[C@H](NS(=O)(=O)c1ccc(-c2c(C#N)c3cnc(OC(F)F)nc3n2C2CCC2)nc1)C(F)(F)F [Cpd 62, 6-[5-cyano-7-cyclobutyl-2-(difluoromethoxy)-7H-pyrrolo[2,3-d]pyrimidin-6-yl]-N-[(2S)-1,1,1-trifluoropropan-2-yl]pyridine-3-sulfonamide] | 172 to 174 °C | > 6.30 |
| C[C@H](NS(=O)(=O)c1ccc(-c2c(C#N)c3cc(Cl)cnc3n2CC2CC2)nc1)C(F)(F)F [Cpd 63, 6-[5-chloro-3-cyano-1-(cyclopropylmethyl)-1H-pyrrolo[2,3-b]pyridin-2-yl]-N-[(2S)-1,1,1-trifluoropropan-2-yl]pyridine-3-sulfonamide] | 226 to 227 °C | > 6.30 |
| C[C@H](NS(=O)(=O)c1ccc(-c2c(C#N)c3cc(F)cnc3n2CC2CC2)nc1)C(F)(F)F [Cpd 64, 6-[3-cyano-1-(cyclopropylmethyl)-5-fluoro-1H-pyrrolo[2,3-b]pyridin-2-yl]-N-[(2S)-1,1,1-trifluoropropan-2-yl]pyridine-3-sulfonamide] | 186 to 188 °C | > 6.30 |
| COc1cnc2c(c1)c(C#N)c(-c1ccc(S(=O)(=O)NC(CF)CF)cc1)n2C1CCC1 [Cpd 65, 4-(3-cyano-1-cyclobutyl-5-methoxy-1H-pyrrolo[2,3-b]pyridin-2-yl)-N-(1,3-difluoropropan-2-yl)benzenesulfonamide] | 215 to 218 °C | > 6.30 |
| COc1cnc2c(c1)c(C#N)c(-c1ccc(S(=O)(=O)N[C@@H](C)C(F)(F)F)cn1)n2CC1CC1 [Cpd 66, 6-[3-cyano-1-(cyclopropylmethyl)-5-methoxy-1H-pyrrolo[2,3-b]pyridin-2-yl]-N-[(2S)-1,1,1-trifluoropropan-2-yl]pyridine-3-sulfonamide] | 136 to 140 °C | > 6.30 |
| C[C@H](NS(=O)(=O)c1ccc(-c2c(C#N)c3cc(Cl)ncc3n2C2CCC2)nc1)C(F)(F)F [Cpd 67, 6-(5-chloro-3-cyano-1-cyclobutyl-1H-pyrrolo[2,3-c]pyridin-2-yl)-N-[(2S)-1,1,1-trifluoropropan-2-yl]pyridine-3-sulfonamide] | 180 to 183 °C | > 6.30 |
| Cc1cnc2c(c1)c(C#N)c(-c1ccc(S(=O)(=O)N[C@H](C)C(F)(F)F)cn1)n2C1CCC1 [Cpd 68, 6-(3-cyano-1-cyclobutyl-5-methyl-1H-pyrrolo[2,3-b]pyridin-2-yl)-N-[(2R)-1,1,1-trifluoropropan-2-yl]pyridine-3-sulfonamide] | 176 to 178 °C | > 6.30 |
| Cc1cnc2c(c1)c(C#N)c(-c1ccc(S(=O)(=O)N[C@@H](C)C(F)(F)F)cn1)n2C1CCC1 [Cpd 69, 6-(3-cyano-1-cyclobutyl-5-methyl-1H-pyrrolo[2,3-b]pyridin-2-yl)-N-[(2S)-1,1,1-trifluoropropan-2-yl]pyridine-3-sulfonamide] | 177 to 179 °C | > 6.30 |
| Cc1cnc2c(c1)c(C#N)c(-c1ncc(S(=O)(=O)N[C@H](C)C(F)(F)F)cn1)n2C1CCC1 [Cpd 70, 2-(3-cyano-1-cyclobutyl-5-methyl-1H-pyrrolo[2,3-b]pyridin-2-yl)-N-[(2R)-1,1,1-trifluoropropan-2-yl]pyrimidine-5-sulfonamide] | 186 to 188 °C | > 6.30 |
| Cc1cnc2c(c1)c(C#N)c(-c1ncc(S(=O)(=O)N[C@@H](C)C(F)(F)F)cn1)n2C1CCC1 [Cpd 71, 2-(3-cyano-1-cyclobutyl-5-methyl-1H-pyrrolo[2,3-b]pyridin-2-yl)-N-[(2S)-1,1,1-trifluoropropan-2-yl]pyrimidine-5-sulfonamide] | 186 to 188 °C | > 6.30 |
| Cc1cnc2c(c1)c(C#N)c(-c1ccc(S(=O)(=O)N[C@H](C)C(F)(F)F)cc1)n2C1CCC1 [Cpd 72, 4-(3-cyano-1-cyclobutyl-5-methyl-1H-pyrrolo[2,3-b]pyridin-2-yl)-N-[(2R)-1,1,1-trifluoropropan-2-yl]benzenesulfonamide] | 197 to 198 °C | > 6.30 |
| Cc1cnc2c(c1)c(C#N)c(-c1ccc(S(=O)(=O)N[C@@H](C)C(F)(F)F)cc1)n2C1CCC1 [Cpd 73, 4-(3-cyano-1-cyclobutyl-5-methyl-1H-pyrrolo[2,3-b]pyridin-2-yl)-N-[(2S)-1,1,1-trifluoropropan-2-yl]benzenesulfonamide] | 197 to 198 °C | > 6.30 |
| Cc1cnc2c(c1)c(C#N)c(-c1ccc(S(=O)(=O)NC3(C(F)(F)F)CC3)cn1)n2C1CCC1 [Cpd 74, 6-(3-cyano-1-cyclobutyl-5-methyl-1H-pyrrolo[2,3-b]pyridin-2-yl)-N-[1-(trifluoromethyl)cyclopropyl]pyridine-3-sulfonamide] | 245 to 247 °C | > 6.30 |
| Cc1cnc2c(c1)c(C#N)c(-c1ccc(S(=O)(=O)NC3(C(F)(F)F)CC3)cc1)n2C1CCC1 [Cpd 75, 4-(3-cyano-1-cyclobutyl-5-methyl-1H-pyrrolo[2,3-b]pyridin-2-yl)-N-[1-(trifluoromethyl)cyclopropyl]benzenesulfonamide] | 187 to 188 °C | > 6.30 |
| Cc1cnc2c(c1)c(C#N)c(-c1ccc(S(=O)(=O)NC3(C)CC3)cn1)n2C1CCC1 [Cpd 76, 6-(3-cyano-1-cyclobutyl-5-methyl-1H-pyrrolo[2,3-b]pyridin-2-yl)-N-(1-methylcyclopropyl)pyridine-3-sulfonamide] | 188 to 189 °C | 5.70 to 6.30 |
| Cc1cnc2c(c1)c(C#N)c(-c1ccc(S(=O)(=O)NC3(C)CC3)cc1)n2C1CCC1 [Cpd 77, 4-(3-cyano-1-cyclobutyl-5-methyl-1H-pyrrolo[2,3-b]pyridin-2-yl)-N-(1-methylcyclopropyl)benzenesulfonamide] | 188 to 190 °C | > 6.30 |
| Cc1cnc2c(c1)c(C#N)c(-c1ncc(S(=O)(=O)NC(C)C)cn1)n2C1CCC1 [Cpd 78, 2-(3-cyano-1-cyclobutyl-5-methyl-1H-pyrrolo[2,3-b]pyridin-2-yl)-N-(propan-2-yl)pyrimidine-5-sulfonamide] | 187 to 190 °C | > 6.30 |
